ChEMBL document CHEMBL4130428, “Recent advances in polysaccharides for osteoarthritis therapy” (2017)

Assays:
Homo sapiens [1] = assay: Anti-osteoarthritis activity in knee osteoarthritis patient assessed as cartilage volume in medial area dosed orally for 2 consecutive years by MRI method relative to control; type: functional
Homo sapiens [2] = assay: Anti-osteoarthritis activity in knee osteoarthritis patient assessed as cartilage volume in medial condylar area dosed orally for 2 consecutive years by MRI method relative to control; type: functional

## Cc1ccc(-c2cc(C(F)(F)F)nn2-c2ccc(S(N)(=O)=O)cc2)cc1 [CELECOXIB]
Homo sapiens [1]
  inhibition (INH): 8.1%
Homo sapiens [2]
  inhibition (INH): 7.7%
